From patent publication US9770026B2, “Substituted pyrimidine compound and uses thereof” (Shenyang Sinochem Agrochemicals R&D Co., Ltd., priority 2012, dated 2017)
Like-named read-outs stand apart in the source and are kept apart here.

Key:
[1] = system: rice blast; test: microbe, parasite or virus in culture; type: cell-based; conditions: Pyricularia oryzae; for inhibition at 25 ppm: read-out: inhibition rate against rice blast, 25 ppm, in vitro
[2] = system: Diamond back moth; test: insecticidal activity against diamond back moth, airbrush spray; type: in vivo; conditions: for pest or weed control at 600 µg/mL: 600 mg/L
How it was run: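 Airbrush leaf-disc spray test: both faces of 2 cm cabbage discs received 0.5 ml of test solution at 0.7 kg/cm^2. Solutions were made in acetone:methanol (1:1) and brought to concentration with 0.1% Tween 80 in water. Ten second-instar larvae per disc, triplicates, were held at 25° C and 60˜70% R.H., with mortality recorded at 72 hrs.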

[3] = system: armyworm; test: bioactivity test against armyworm, airbrush spray; type: in vivo; conditions: for pest or weed control at 600 µg/mL: 600 mg/L, read-out: Insecticidal activity against armyworm (%)
[4] = system: Green peach aphids (Myzus Persicae Sulzer); test: bioactivity test against green peach aphid, airbrush foliar spray; type: in vivo
How it was run: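 Aphids (15-30 per cabbage leaf disc) on moist filter paper were airbrush-sprayed at 10 psi, 0.5 mL, with compound from acetone:methanol (1:1) diluted in water with 0.1% tween 80. Held at 25±1 C, 60±5% RH; survivors counted after 48 hrs to give death rates.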

[5] = system: carmine spider mite; test: bioactivity test against carmine spider mite, airbrush spray; type: in vivo; conditions: for pest or weed control at 600 µg/mL / pest or weed control at 10 µg/mL / pest or weed control at 100 µg/mL: read-out: Insecticidal activity against carmine spider mite (% )
How it was run: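 Broadbean seedlings infested with adult mites were sprayed with compound (acetone/methanol stock diluted in 0.1% Tween 80 water) by airbrush at 0.7 kg/cm^2, 0.5 ml. Three replicates were run. Mortality was scored after 72 hrs.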

[6] = system: corn rust; test: protectant activity in vivo against corn rust; conditions: for pest or weed control at 400 µg/mL: read-out: control effect against corn rust (%), 400 mg/L
[7] = system: wheat powdery mildew; test: protectant activity in vivo against wheat powdery mildew; conditions: for pest or weed control at 400 µg/mL: read-out: control effect against wheat powdery mildew (%), 400 mg/L
[8] = system: cucumber downy mildew; test: protectant activity in vivo against cucumber downy mildew; conditions: Cucumis sativus, 168 h; for pest or weed control at 25 µg/mL: read-out: control effect against cucumber downy mildew (%), 25 mg/L; for pest or weed control at 50 µg/mL: read-out: control effect against cucumber downy mildew (%), 50 mg/L; for pest or weed control at 100 µg/mL: read-out: control effect against cucumber downy mildew (%), 100 mg/L
[9] = system: cucumber gray mold; test: fungicidal activity in vitro (inhibition rate) against cucumber gray mold; type: cell-based; conditions: read-out: inhibition rate against cucumber gray mold
[10] = Myzus persicae, foliar, 48 h, 10 mg/L, contrastive test, read-out: Insecticidal activity against peach aphid (%)
[11] = Myzus persicae, foliar, 48 h, 100 mg/L, contrastive test, read-out: Insecticidal activity against peach aphid (%)
[12] = Myzus persicae, foliar, 48 h, 600 mg/L, contrastive test, read-out: Insecticidal activity against peach aphid (%)
[13] = Tetranychus cinnabarinus, 72 h, 600 mg/L, contrastive test
[14] = Zea mays, 168 h, protectant activity
[15] = Triticum aestivum, 168 h, protectant activity
[16] = read-out: control effect against cucumber downy mildew (%), 400 mg/L, protectant activity
[17] = 100 ppm, mortality after 72 hrs
[18] = 600 ppm, mortality after 72 hrs
[19] = Myzus persicae, foliar, 48 h, read-out: Insecticidal activity against peach aphid (%)

Cc1ncnc(NCc2ccc(Oc3ncc(Cl)cc3Cl)cc2)c1Cl [CK37, reference compound]
inhibition at 25 ppm [1]: < 50% | pest or weed control at 600 µg/mL ([2]; 72 h): 0% | pest or weed control at 600 µg/mL ([3]; 72 h): 0% | pest or weed control at 10 µg/mL [4, 10]: 0% | pest or weed control at 100 µg/mL [4, 11]: 16% | pest or weed control at 600 µg/mL [4, 12]: 100% | pest or weed control at 600 µg/mL [5, 13]: 0% | pest or weed control at 400 µg/mL [6, 14]: 0% | pest or weed control at 400 µg/mL [7, 15]: 0% | pest or weed control at 25 µg/mL ([8]; protectant activity): 0% | pest or weed control at 50 µg/mL ([8]; protectant activity): 10% | pest or weed control at 100 µg/mL ([8]; protectant activity): 20% | pest or weed control at 400 µg/mL [8, 16]: 100%

CC(Cl)c1ncnc(NCc2ccc(Oc3ccc(C(F)(F)F)cn3)cc2)c1Cl (centres unmarked) [CK43, reference compound]
inhibition at 25 ppm [1]: < 50% | pest or weed control at 600 µg/mL ([2]; 72 h): 0% | pest or weed control at 600 µg/mL ([3]; 72 h): 0% | pest or weed control at 600 µg/mL [4, 12]: 0% | pest or weed control at 10 µg/mL ([5]; Tetranychus cinnabarinus, 72 h, 10 mg/L, contrastive test): 16% | pest or weed control at 100 µg/mL ([5]; Tetranychus cinnabarinus, 72 h, 100 mg/L, contrastive test): 29% | pest or weed control at 600 µg/mL [5, 13]: 74% | pest or weed control at 400 µg/mL [6, 14]: 85% | pest or weed control at 400 µg/mL [7, 15]: 20% | pest or weed control at 25 µg/mL ([8]; protectant activity): 0% | pest or weed control at 50 µg/mL ([8]; protectant activity): 20% | pest or weed control at 100 µg/mL ([8]; protectant activity): 40% | pest or weed control at 400 µg/mL [8, 16]: 100%

CCc1ncnc(NCc2ccc(Oc3ccc(C(F)(F)F)cc3)cc2)c1Cl [CK54, reference compound]
inhibition at 25 ppm ([9]; 25 ppm, in vitro): 0% | pest or weed control at 600 µg/mL ([3]; 72 h): 67% | pest or weed control at 10 µg/mL [4, 10]: 34% | pest or weed control at 100 µg/mL [4, 11]: 100% | pest or weed control at 600 µg/mL [4, 12]: 100% | pest or weed control at 6.25 µg/mL ([6]; Zea mays, 168 h, read-out: control effect against corn rust (%), 6.25 mg/L, protectant activity): 0% | pest or weed control at 25 µg/mL ([6]; Zea mays, 168 h, read-out: control effect against corn rust (%), 25 mg/L, protectant activity): 30% | pest or weed control at 100 µg/mL ([6]; Zea mays, 168 h, read-out: control effect against corn rust (%), 100 mg/L, protectant activity): 60% | pest or weed control at 400 µg/mL [6, 14]: 100% | pest or weed control at 25 µg/mL ([8]; protectant activity): 65% | pest or weed control at 50 µg/mL ([8]; protectant activity): 80% | pest or weed control at 100 µg/mL ([8]; protectant activity): 90% | pest or weed control at 400 µg/mL [8, 16]: 100%

CC(Cl)c1ncnc(NCCc2ccc(Oc3ccc(Cl)nn3)cc2)c1Cl (centres unmarked) [CK62, reference compound]
inhibition at 25 ppm ([9]; 25 ppm, in vitro): < 50% | pest or weed control at 600 µg/mL [5, 13]: 0% | pest or weed control at 400 µg/mL [8, 16]: 80%

CCc1ncnc(NCCc2ccc(Oc3ccc(C(F)(F)F)cn3)cc2)c1Cl [Compound I-6758]
inhibition at 8.3 ppm ([1]; read-out: inhibition rate against rice blast, 8.3 ppm, in vitro): 80 to 99% | control (test results against diamond back moth) [2, 17]: 100% | control (test results against diamond back moth) [2, 18]: 100% | control (test results against armyworm) ([3]; 100 ppm, mortality after 72 h): 100% | control (test results against armyworm) ([3]; 600 ppm, mortality after 72 h): 100% | Insecticidal activity against peach aphid (%) ([4]; 1.25 mg/L, contrastive test): 89% | Insecticidal activity against peach aphid (%) ([4]; 2.5 mg/L, contrastive test): 100% | Insecticidal activity against peach aphid (%) ([4]; 5 mg/L, contrastive test): 100% | Insecticidal activity against peach aphid (%) ([4]; 10 mg/L, contrastive test): 100% | Insecticidal activity against peach aphid (%) ([4]; 100 mg/L, contrastive test): 100% | Insecticidal activity against peach aphid (%) ([4]; 600 mg/L, contrastive test): 100% | control (test results against green peach aphid) ([4]; 2.5 ppm, death rate after 48 hrs): 100% | control (test results against green peach aphid) ([4]; 5 ppm, death rate after 48 hrs): 100% | control (test results against green peach aphid) ([4]; 10 ppm, death rate after 48 hrs): 100% | control (test results against green peach aphid) ([4]; 100 ppm, death rate after 48 hrs): 100% | control (test results against green peach aphid) ([4]; 600 ppm, death rate after 48 hrs): 100% | Insecticidal activity against carmine spider mite (% ) ([5]; 2.5 mg/L): 79% | Insecticidal activity against carmine spider mite (% ) ([5]; 5 mg/L): 82% | Insecticidal activity against carmine spider mite (% ) ([5]; 10 mg/L, contrastive test): 99% | Insecticidal activity against carmine spider mite (% ) ([5]; 100 mg/L, contrastive test): 100% | Insecticidal activity against carmine spider mite (% ) ([5]; 600 mg/L, contrastive test): 100% | control against carmine spider mite [5, 17]: 100% | control against carmine spider mite [5, 18]: 100% | protectant activity against corn rust in vivo ([6]; 100 ppm): 100% | protectant activity against corn rust in vivo ([6]; 400 ppm): 100% | protectant activity against wheat powdery mildew in vivo ([7]; 100 ppm): 100% | protectant activity against wheat powdery mildew in vivo ([7]; 400 ppm): 100%

COc1cc(CCNc2ncnc(C(F)F)c2Cl)ccc1Oc1ccc(Cl)cc1 [II-10583]
inhibition at 25 ppm [1]: 80 to 99% | pest or weed control at 600 ppm ([2]; 72 h, 600 ppm, mortality after 72 hrs, read-out: control (test results against diamond back moth)): 100% | pest or weed control at 600 ppm ([3]; 72 h, 600 ppm, mortality after 72 h): 100% | pest or weed control at 10 µg/mL [4, 10]: 100% | pest or weed control at 100 µg/mL [4, 11]: 100% | pest or weed control at 600 µg/mL [4, 12]: 100% | pest or weed control at 10 ppm ([4]; Myzus persicae, foliar, 48 h, 10 ppm, death rate after 48 hrs): 100% | pest or weed control at 100 ppm ([4]; Myzus persicae, foliar, 48 h, 100 ppm, death rate after 48 hrs): 100% | pest or weed control at 600 ppm ([4]; Myzus persicae, foliar, 48 h, 600 ppm, death rate after 48 hrs): 100% | pest or weed control at 600 ppm ([5]; Tetranychus cinnabarinus, 72 h, 600 ppm, mortality after 72 hrs): 100% | pest or weed control at 25 ppm ([6]; Zea mays, 168 h, read-out: protectant activity against corn rust in vivo, 25 ppm): 80 to 99% | pest or weed control at 100 ppm ([6]; Zea mays, 168 h, read-out: protectant activity against corn rust in vivo, 100 ppm): 100% | pest or weed control at 400 ppm ([6]; Zea mays, 168 h, read-out: protectant activity against corn rust in vivo, 400 ppm): 100% | pest or weed control at 6.25 µg/mL ([7]; Triticum aestivum, 168 h, read-out: control effect against wheat powdery mildew (%), 6.25 mg/L, protectant activity): 100% | pest or weed control at 25 µg/mL ([7]; Triticum aestivum, 168 h, read-out: control effect against wheat powdery mildew (%), 25 mg/L, protectant activity): 100% | pest or weed control at 100 µg/mL ([7]; Triticum aestivum, 168 h, read-out: control effect against wheat powdery mildew (%), 100 mg/L, protectant activity): 100% | pest or weed control at 400 µg/mL [7, 15]: 100% | pest or weed control at 6.25 ppm ([7]; Triticum aestivum, 168 h, read-out: protectant activity against wheat powdery mildew in vivo, 6.25 ppm): 100% | pest or weed control at 25 ppm ([7]; Triticum aestivum, 168 h, read-out: protectant activity against wheat powdery mildew in vivo, 25 ppm): 100% | pest or weed control at 100 ppm ([7]; Triticum aestivum, 168 h, read-out: protectant activity against wheat powdery mildew in vivo, 100 ppm): 100% | pest or weed control at 400 ppm ([7]; Triticum aestivum, 168 h, read-out: protectant activity against wheat powdery mildew in vivo, 400 ppm): 100% | pest or weed control at 6.25 µg/mL ([8]; read-out: control effect against cucumber downy mildew (%), 6.25 mg/L, protectant activity): 95% | pest or weed control at 12.5 µg/mL ([8]; read-out: control effect against cucumber downy mildew (%), 12.5 mg/L, protectant activity): 95% | pest or weed control at 25 µg/mL ([8]; protectant activity): 95% | pest or weed control at 50 µg/mL ([8]; protectant activity): 100% | pest or weed control at 100 µg/mL ([8]; protectant activity): 100% | pest or weed control at 400 µg/mL [8, 16]: 100% | pest or weed control at 6.25 ppm ([8]; read-out: protectant activity against cucumber downy mildew in vivo, 6.25 ppm): 80 to 99% | pest or weed control at 12.5 ppm ([8]; read-out: protectant activity against cucumber downy mildew in vivo, 12.5 ppm): 80 to 99% | pest or weed control at 25 ppm ([8]; read-out: protectant activity against cucumber downy mildew in vivo, 25 ppm): 80 to 99% | pest or weed control at 50 ppm ([8]; read-out: protectant activity against cucumber downy mildew in vivo, 50 ppm): 80 to 99% | pest or weed control at 100 ppm ([8]; read-out: protectant activity against cucumber downy mildew in vivo, 100 ppm): 100% | pest or weed control at 400 ppm ([8]; read-out: protectant activity against cucumber downy mildew in vivo, 400 ppm): 100%

CC(F)c1ncnc(NCCc2ccc(OC(F)(F)F)cc2)c1Cl (centres unmarked) [flufenerim, reference compound]
inhibition at 25 ppm [9]: 0% | pest or weed control at 1.25 µg/mL [4, 19]: 37% | pest or weed control at 2.5 µg/mL [4, 19]: 90% | pest or weed control at 5 µg/mL [4, 19]: 100% | pest or weed control at 10 µg/mL [4, 19]: 100% | pest or weed control at 100 µg/mL [4, 19]: 100% | pest or weed control at 600 µg/mL [4, 19]: 100% | pest or weed control at 10 µg/mL ([5]; Tetranychus cinnabarinus, 72 h): 72% | pest or weed control at 100 µg/mL ([5]; Tetranychus cinnabarinus, 72 h): 100% | pest or weed control at 600 µg/mL ([5]; Tetranychus cinnabarinus, 72 h): 100% | pest or weed control at 400 µg/mL ([8]; read-out: control effect against cucumber downy mildew (%)): 0%
